Where only a bound is given, the exact number is not on record here.

Assay [1] has as its target c-Kit kinase (Homo sapiens, UniProt P10721). The experiment in a line: c-Kit kinase biochemical activity assay (AlphaScreen, biotin-(E4Y)10 phosphorylation). The settings on record: 100 μM ATP; read-out: Biochemical Inhibition IC50 Kit. The essentials:
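Phosphorylation of 30 nM biotin-(E4Y)10 by c-Kit (0.75 ng per reaction) with 100 µM ATP in HEPES pH 7.5 buffer with Mg2+/Mn2+, 5% DMSO, 1 h at room temperature; 8-point 1:2 compound dilutions. AlphaScreen detection with streptavidin donor and PY20 acceptor beads after EDTA stop. IC50 from signal versus concentration.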
For orientation: In Alpha technology, singlet oxygen from a donor bead excites a nearby acceptor bead.

Assay [2] concerns the target T1, Flt-3 kinase (Homo sapiens, UniProt P36888).
T1 sequence (P36888 27-993): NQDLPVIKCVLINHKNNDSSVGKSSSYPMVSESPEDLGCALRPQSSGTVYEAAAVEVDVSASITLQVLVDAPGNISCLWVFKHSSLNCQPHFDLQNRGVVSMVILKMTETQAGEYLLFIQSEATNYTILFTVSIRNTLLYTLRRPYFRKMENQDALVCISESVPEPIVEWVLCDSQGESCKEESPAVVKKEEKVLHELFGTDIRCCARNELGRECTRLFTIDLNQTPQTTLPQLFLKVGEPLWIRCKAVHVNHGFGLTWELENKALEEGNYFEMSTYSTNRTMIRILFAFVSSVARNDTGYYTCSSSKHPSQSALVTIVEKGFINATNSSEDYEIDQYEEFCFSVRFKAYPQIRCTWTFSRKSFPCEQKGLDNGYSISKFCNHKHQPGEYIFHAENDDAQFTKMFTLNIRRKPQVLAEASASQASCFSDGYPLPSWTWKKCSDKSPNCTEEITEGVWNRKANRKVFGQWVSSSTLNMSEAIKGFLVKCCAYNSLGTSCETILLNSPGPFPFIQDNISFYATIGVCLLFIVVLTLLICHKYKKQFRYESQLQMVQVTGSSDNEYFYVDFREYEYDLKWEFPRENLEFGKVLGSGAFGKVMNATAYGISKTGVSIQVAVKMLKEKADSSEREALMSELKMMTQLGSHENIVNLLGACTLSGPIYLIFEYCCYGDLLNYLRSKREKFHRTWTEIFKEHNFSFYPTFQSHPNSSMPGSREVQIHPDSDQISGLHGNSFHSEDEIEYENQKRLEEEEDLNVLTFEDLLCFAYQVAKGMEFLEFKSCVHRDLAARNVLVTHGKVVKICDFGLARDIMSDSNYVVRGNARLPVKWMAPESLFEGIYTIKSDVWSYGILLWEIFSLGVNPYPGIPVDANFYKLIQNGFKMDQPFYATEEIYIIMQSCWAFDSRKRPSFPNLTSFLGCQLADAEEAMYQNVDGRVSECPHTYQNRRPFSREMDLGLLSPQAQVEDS
The experiment in a line: Flt-3 kinase biochemical activity assay (AlphaScreen). The settings on record: 100 μM ATP; read-out: Biochemical Inhibition IC50 Flt3. On the procedure:
In one assay the biochemical activity IC50 values are determined with respect to inhibition of Flt-3 kinase activity, where inhibition of phosphorylation of a peptide substrate is measured as a function of compound concentration. Compounds to be tested, dissolved in DMSO (1 μL), are added to a white 384-well plate (Costar #3705). Working stocks of Flt-3 kinase (Invitrogen), biotin-(E4Y)10 substrate (Upstate Biotech, Cat#12-440), and ATP (Sigma, Cat#A-3377) are prepared in 25 mM Hepes pH 7.5, 5 mM MgCl2, 5 mM MnCl2, 1 mM DTT, and 0.01% Tween-20. All components are added to the 384-well plate for a final concentration of 1 ng/well Flt-3, 30 nM biotin-(E4Y)10 and 100 μM ATP in a volume of 20 μL. Each sample is at 5% DMSO. The plate is then incubated for 1 hour at room temperature. Just before use, working stocks of donor and acceptor beads from the AlphaScreen PY20 Detection Kit (PerkinElmer, Cat#676601M) are prepared in 25 mM Hepes pH 7.5, pH 7.4, 100 mM EDTA. 0.3% BSA. To stop the reaction, the plate is uncovered in the dark and 5 μL of Donor Beads solution (Streptavidin beads) is added to each well. The plate is incubated at room temperature for 20 minutes. Five microliters of Acceptor Beads solution (PY20 coated beads) are then added to each well. The final concentration of each bead is 10 μg/mL. The plates are incubated at room temperature for 60 minutes. Fluorescence signal is recorded on the Envision reader. Phosphorylated substrate results in binding of the PY20 antibody and association of the donor and acceptor beads such that signal correlates with kinase activity. The signal vs. compound concentration is used to determine the IC50.

Sequence of c-Kit kinase (P10721 26-976): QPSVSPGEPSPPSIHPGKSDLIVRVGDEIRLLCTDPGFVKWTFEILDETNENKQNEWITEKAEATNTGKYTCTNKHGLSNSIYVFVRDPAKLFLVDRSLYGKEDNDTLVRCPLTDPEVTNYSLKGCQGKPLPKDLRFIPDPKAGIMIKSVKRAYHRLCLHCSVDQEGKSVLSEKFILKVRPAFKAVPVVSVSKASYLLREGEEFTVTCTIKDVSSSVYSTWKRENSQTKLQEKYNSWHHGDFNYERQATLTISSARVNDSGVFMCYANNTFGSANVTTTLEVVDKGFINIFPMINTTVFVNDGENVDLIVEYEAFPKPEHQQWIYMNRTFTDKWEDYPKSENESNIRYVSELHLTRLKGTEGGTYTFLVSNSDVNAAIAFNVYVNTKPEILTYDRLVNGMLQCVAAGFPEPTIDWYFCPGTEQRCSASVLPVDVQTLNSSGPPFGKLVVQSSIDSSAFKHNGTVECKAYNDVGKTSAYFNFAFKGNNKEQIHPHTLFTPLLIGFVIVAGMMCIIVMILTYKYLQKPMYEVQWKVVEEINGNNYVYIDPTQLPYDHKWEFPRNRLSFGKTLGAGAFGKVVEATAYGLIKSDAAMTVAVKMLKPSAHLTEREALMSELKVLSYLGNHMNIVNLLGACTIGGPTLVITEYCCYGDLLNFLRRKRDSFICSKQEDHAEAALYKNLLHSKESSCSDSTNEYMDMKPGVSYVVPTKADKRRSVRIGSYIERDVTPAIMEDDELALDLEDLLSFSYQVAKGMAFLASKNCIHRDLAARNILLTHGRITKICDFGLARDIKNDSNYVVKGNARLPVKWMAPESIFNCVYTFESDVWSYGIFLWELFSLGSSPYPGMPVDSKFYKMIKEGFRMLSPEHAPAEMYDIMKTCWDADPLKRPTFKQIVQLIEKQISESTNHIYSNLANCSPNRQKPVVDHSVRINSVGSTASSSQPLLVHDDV

Turning to `COc1ncnc2[nH]cc(Cc3ccc(Nc4ccc(Cl)nc4)nc3F)c12` [Compound P-4003, (6-Chloro-pyridin-3-yl)-[6-fluoro-5-(4-methoxy-7H-pyrrolo[2,3-d]pyrimidin-5-ylmethyl)-pyridin-2-yl]-amine], the IC50 in assay [1] and in assay [2] was less than 1000 nM each time.
`COc1ncnc2[nH]cc(Cc3ccc(Nc4ccc(C5CC5)nc4)nc3F)c12` [Compound P-4004, (6-Cyclopropyl-pyridin-3-yl)-[6-fluoro-5-(4-methoxy-7H-pyrrolo[2,3-d]pyrimidin-5-ylmethyl)-pyridin-2-yl]-amine]: the concentration for half-maximal inhibition (IC50) (usually the concentration needed to halve the response being measured) is less than 100 nM in assay [1] and less than 10 nM in assay [2].
On the same counts, the results for `CCOc1ccc(Nc2ccc(Cc3c[nH]c4ncnc(OC)c34)c(F)n2)cn1` [Compound P-4005, (6-Ethoxy-pyridin-3-yl)-[6-fluoro-5-(4-methoxy-7H-pyrrolo[2,3-d]pyrimidin-5-ylmethyl)-pyridin-2-yl]-amine] are less than 100 nM and less than 100 nM.
With `CCOc1ccc(Nc2ccc(Cc3c[nH]c4ncnc(C)c34)c(F)n2)cn1` [Compound P-4006, (6-Ethoxy-pyridin-3-yl)-[6-fluoro-5-(4-methyl-7H-pyrrolo[2,3-d]pyrimidin-5-ylmethyl)-pyridin-2-yl]-amine], the IC50 in assay [1] and in assay [2] was less than 100 nM throughout.
`CCc1ccc(Nc2ccc(Cc3c[nH]c4ncnc(OC)c34)c(F)n2)cn1` [Compound P-4007, (6-Ethyl-pyridin-3-yl)-[6-fluoro-5-(4-methoxy-7H-pyrrolo[2,3-d]pyrimidin-5-ylmethyl)-pyridin-2-yl]-amine]: the IC50 in assay [1] and in assay [2] was less than 100 nM each time.
Consider `CCOc1ccc(Nc2ccc(Cc3c[nH]c4ncnc(OCCOC)c34)c(F)n2)cn1` [Compound P-4008, (6-Ethoxy-pyridin-3-yl)-{6-fluoro-5-[4-(2-methoxy-ethoxy)-7H-pyrrolo[2,3-d]pyrimidin-5-ylmethyl]-pyridin-2-yl}-amine], for which the IC50 in assay [1] was less than 1000 nM; in assay [2], less than 100 nM.
Consider `CCc1ccc(Nc2ccc(Cc3c[nH]c4ncnc(C)c34)c(F)n2)cn1` [Compound P-4009, (6-Ethyl-pyridin-3-yl)-[6-fluoro-5-(4-methyl-7H-pyrrolo[2,3-d]pyrimidin-5-ylmethyl)-pyridin-2-yl]-amine], for which the IC50 in assay [1] and in assay [2] was less than 100 nM throughout.
Take `COc1ncnc2[nH]cc(Cc3ccc(Nc4ccc(C)nc4)nc3F)c12` [Compound P-4010, [6-Fluoro-5-(4-methoxy-7H-pyrrolo[2,3-d]pyrimidin-5-ylmethyl)-pyridin-2-yl]-(6-methyl-pyridin-3-yl)-amine]: the 50% inhibitory concentration (IC50) in assay [1] and in assay [2] was less than 1000 nM throughout.
Regarding `CCn1cc(Nc2ccc(Cc3c[nH]c4ncnc(OC)c34)c(F)n2)cn1` [Compound P-4011, (1-Ethyl-1H-pyrazol-4-yl)-[6-fluoro-5-(4-methoxy-7H-pyrrolo[2,3-d]pyrimidin-5-ylmethyl)-pyridin-2-yl]-amine], the concentration for half-maximal inhibition (IC50) in assay [1] and in assay [2] was less than 1000 nM throughout.
Consider `CCOc1ncnc2[nH]cc(Cc3ccc(Nc4cnn(CC)c4)nc3F)c12` [Compound P-4012, [5-(4-Ethoxy-7H-pyrrolo[2,3-d]pyrimidin-5-ylmethyl)-6-fluoro-pyridin-2-yl]-(1-ethyl-1H-pyrazol-4-yl)-amine], for which the IC50 in assay [1] and in assay [2] was less than 1000 nM each time.
Turning to `CCn1cc(Nc2ccc(Cc3c[nH]c4ncnc(C)c34)c(F)n2)cn1` [Compound P-4013, (1-Ethyl-1H-pyrazol-4-yl)-[6-fluoro-5-(4-methyl-7H-pyrrolo[2,3-d]pyrimidin-5-ylmethyl)-pyridin-2-yl]-amine], the figures for the IC50 in assay [1] and in assay [2] were less than 1000 nM and more than 1000 nM, respectively.
For the compound `CCn1cc(Nc2ccc(Cc3c[nH]c4ncnc(OCCOC)c34)c(F)n2)cn1` [Compound P-4014, (1-Ethyl-1H-pyrazol-4-yl)-{6-fluoro-5-[4-(2-methoxy-ethoxy)-7H-pyrrolo[2,3-d]pyrimidin-5-ylmethyl]-pyridin-2-yl}-amine], the half-maximal inhibitory concentration (IC50) in assay [1] is less than 100 nM; in assay [2], less than 1000 nM.
On to `COCCOc1ncnc2[nH]cc(Cc3ccc(Nc4ccc(C)nc4)nc3F)c12` [Compound P-4015, {6-Fluoro-5-[4-(2-methoxy-ethoxy)-7H-pyrrolo[2,3-d]pyrimidin-5-ylmethyl]-pyridin-2-yl}-(6-methyl-pyridin-3-yl)-amine], for which the IC50 in assay [1] is less than 100 nM; in assay [2], more than 1000 nM.
Taken in the same sequence, the figures for `CCc1ccc(Nc2ccc(Cc3c[nH]c4ncnc(OCCOC)c34)c(F)n2)cn1` [Compound P-4016, (6-Ethyl-pyridin-3-yl)-{6-fluoro-5-[4-(2-methoxy-ethoxy)-7H-pyrrolo[2,3-d]pyrimidin-5-ylmethyl]-pyridin-2-yl}-amine] were less than 100 nM and less than 10 nM.
For `CCOc1ncnc2[nH]cc(Cc3ccc(Nc4ccc(C)nc4)nc3F)c12` [Compound P-4017, [5-(4-Ethoxy-7H-pyrrolo[2,3-d]pyrimidin-5-ylmethyl)-6-fluoro-pyridin-2-yl]-(6-methyl-pyridin-3-yl)-amine], the IC50 in assay [1] and in assay [2] was less than 100 nM throughout.
For the compound `CCOc1ncnc2[nH]cc(Cc3ccc(Nc4ccc(OC)nc4)nc3F)c12` [Compound P-4018, [5-(4-Ethoxy-7H-pyrrolo[2,3-d]pyrimidin-5-ylmethyl)-6-fluoro-pyridin-2-yl]-(6-methoxy-pyridin-3-yl)-amine], the half-inhibitory concentration (IC50) in assay [1] and in assay [2] was less than 100 nM each time.
With `COCCOc1ncnc2[nH]cc(Cc3ccc(Nc4ccc(OC)nc4)nc3F)c12` [Compound P-4019, {6-Fluoro-5-[4-(2-methoxy-ethoxy)-7H-pyrrolo[2,3-d]pyrimidin-5-ylmethyl]-pyridin-2-yl}-(6-methoxy-pyridin-3-yl)-amine], the IC50 in assay [1] was less than 1000 nM; in assay [2], less than 100 nM.
As to `CCOc1ncnc2[nH]cc(Cc3ccc(Nc4ccc(Br)nc4)nc3F)c12` [Compound P-4020, (6-Bromo-pyridin-3-yl)-[5-(4-ethoxy-7H-pyrrolo[2,3-d]pyrimidin-5-ylmethyl)-6-fluoro-pyridin-2-yl]-amine], the IC50 in assay [1] and in assay [2] was less than 100 nM in each case.
Turning to `CCOc1ncnc2[nH]cc(Cc3ccc(Nc4cccnc4)nc3F)c12` [Compound P-4021, [5-(4-Ethoxy-7H-pyrrolo[2,3-d]pyrimidin-5-ylmethyl)-6-fluoro-pyridin-2-yl]-pyridin-3-yl-amine], the IC50 is less than 1000 nM in assay [1] and more than 1000 nM in assay [2].
Turning to `COc1ccc(Nc2ccc(C(=O)c3c[nH]c4ncnc(C5CC5)c34)c(F)n2)cn1` [Compound P-4022, (4-cyclopropyl-7H-pyrrolo[2,3-d]pyrimidin-5-yl)-[2-fluoro-6-(6-methoxy-pyridin-3-ylamino)-pyridin-3-yl]-methanone], the IC50 is less than 1000 nM in assay [1] and less than 100 nM in assay [2].
With `COc1ccc(Nc2ccc(Cc3c[nH]c4ncnc(C5CC5)c34)c(F)n2)cn1` [Compound P-4023, [5-(4-cyclopropyl-7H-pyrrolo[2,3-d]pyrimidin-5-ylmethyl)-6-fluoro-pyridin-2-yl]-(6-methoxy-pyridin-3-yl)-amine], the IC50 in assay [1] and in assay [2] was less than 1000 nM in each case.

The record behind these values is patent publication US8901118B2, “Compounds and methods for kinase modulation, and indications therefor” (Plexxikon Inc., priority 2010, dated 2014).
